# Results from paper PMC5218480 (PLoS ONE, 2017).
# Tested on: MV-4-11 cells
# Assay: Gene expression microarray analysis (Affymetrix PrimeView) and GSEA
# Format: cell-based, human
# Design: RFU PODN (11730768_x_at) / Fold change /veh PODN (11730768_x_at) / RFU LINC00158 (11744669_a_at) / Fold change /veh LINC00158 (11744669_a_at) / RFU DUSP10 (11751237_a_at) / Fold change /veh DUSP10 (11751237_a_at) / RFU ID3 (11757404_x_at) / Fold change /veh ID3 (11757404_x_at) / RFU PLEKHG5 (11737974_s_at) / Fold change /veh PLEKHG5 (11737974_s_at) / RFU LRRC4B (11730491_at) / Fold change /veh LRRC4B (11730491_at) / RFU GIMAP4 (11747438_a_at) / Fold change /veh GIMAP4 (11747438_a_at) / RFU KRT8 (11758183_x_at) / Fold change /veh KRT8 (11758183_x_at) / RFU CNN1 (11734310_a_at) / Fold change /veh CNN1 (11734310_a_at) / RFU VPS37D (11726825_at) / Fold change /veh VPS37D (11726825_at) / RFU C10orf10 (11716522_x_at) / Fold change /veh C10orf10 (11716522_x_at) / RFU KIR2DL2 /// KIR2DL4 /// KIR2DL5A /// KIR2DL5B /// KIR2DS1 /// KIR2DS2 /// KIR2DS3 /// KIR2DS4 /// KIR3DL3 /// KIR3DL3 /// KIR3DS1 (11738374_at) / Fold change /veh KIR2DL2 /// KIR2DL4 /// KIR2DL5A /// KIR2DL5B /// KIR2DS1 /// KIR2DS2 /// KIR2DS3 /// KIR2DS4 /// KIR3DL3 /// KIR3DL3 /// KIR3DS1 (11738374_at) / RFU C1QL1 (11718748_at) / Fold change /veh C1QL1 (11718748_at) / RFU TMPRSS4 (11747572_a_at) / Fold change /veh TMPRSS4 (11747572_a_at) / RFU HAMP (11756126_x_at) / Fold change /veh HAMP (11756126_x_at) / RFU RNFT2 (11725882_a_at) / Fold change /veh RNFT2 (11725882_a_at) / RFU NR4A2 (11747474_a_at) / Fold change /veh NR4A2 (11747474_a_at) / RFU ABCC12 (11746883_a_at) / Fold change /veh ABCC12 (11746883_a_at) / RFU TMEM136 (11760407_x_at) / Fold change /veh TMEM136 (11760407_x_at) / RFU CLDN22 /// WWC2 (11732394_at) / Fold change /veh CLDN22 /// WWC2 (11732394_at) / RFU HLA-DPB1 (11760878_x_at) / Fold change /veh HLA-DPB1 (11760878_x_at) / RFU SPINT1 (11716480_a_at) / Fold change /veh SPINT1 (11716480_a_at) / RFU GAP43 (11754022_s_at) / Fold change /veh GAP43 (11754022_s_at) / RFU A4GNT (11735810_at) / Fold change /veh A4GNT (11735810_at) / RFU PRB3 (11715151_x_at) / Fold change /veh PRB3 (11715151_x_at) / RFU TUBB4B (11761932_at) / Fold change /veh TUBB4B (11761932_at) / RFU CAPN14 (11732068_a_at) / Fold change /veh CAPN14 (11732068_a_at) / RFU TMCC2 (11721928_a_at) / Fold change /veh TMCC2 (11721928_a_at) / RFU IRGQ (11745062_a_at) / Fold change /veh IRGQ (11745062_a_at) / RFU FAM174B (11720279_a_at) / Fold change /veh FAM174B (11720279_a_at) / RFU TMPRSS4 (11748680_a_at) / Fold change /veh TMPRSS4 (11748680_a_at) / RFU FAM212B (11763350_a_at) / Fold change /veh FAM212B (11763350_a_at) / RFU PLEKHG5 (11743358_a_at) / Fold change /veh PLEKHG5 (11743358_a_at) / RFU ZSCAN30 (11745921_a_at) / Fold change /veh ZSCAN30 (11745921_a_at) / RFU CMKLR1 (11741424_a_at) / Fold change /veh CMKLR1 (11741424_a_at) / RFU LOC101060620 /// MAPK8IP1 (11723275_at) / Fold change /veh LOC101060620 /// MAPK8IP1 (11723275_at) / RFU SPTSSB (11747773_x_at) / Fold change /veh SPTSSB (11747773_x_at) / RFU PRSS12 (11739890_at) / Fold change /veh PRSS12 (11739890_at) / RFU BIN1 (11741810_x_at) / Fold change /veh BIN1 (11741810_x_at) / RFU WNT11 (11732464_a_at) / Fold change /veh WNT11 (11732464_a_at) / RFU C10orf10 (11716521_a_at) / Fold change /veh C10orf10 (11716521_a_at) / RFU C5orf56 (11738089_at) / Fold change /veh C5orf56 (11738089_at) / RFU CYB561 (11721691_x_at) / Fold change /veh CYB561 (11721691_x_at) / RFU ANKRD19P (11752326_a_at) / Fold change /veh ANKRD19P (11752326_a_at) / RFU OR2T12 /// OR2T33 /// OR2T8 (11738714_s_at) / Fold change /veh OR2T12 /// OR2T33 /// OR2T8 (11738714_s_at) / RFU VCAN (11748164_a_at) / Fold change /veh VCAN (11748164_a_at) / RFU JSRP1 (11732532_at) / Fold change /veh JSRP1 (11732532_at) / RFU KRTAP10-11 (11738290_x_at) / Fold change /veh KRTAP10-11 (11738290_x_at) / RFU MYO3A (11730013_a_at) / Fold change /veh MYO3A (11730013_a_at) / RFU EBF3 (11725865_a_at) / Fold change /veh EBF3 (11725865_a_at) / RFU CAMK2N1 (11719241_x_at) / Fold change /veh CAMK2N1 (11719241_x_at) / RFU C5orf56 (11738088_a_at) / Fold change /veh C5orf56 (11738088_a_at) / RFU OLFML3 (11715873_a_at) / Fold change /veh OLFML3 (11715873_a_at) / RFU LOC100653217 /// NTM (11731650_a_at) / Fold change /veh LOC100653217 /// NTM (11731650_a_at) / RFU MAPK11 (11762145_a_at) / Fold change /veh MAPK11 (11762145_a_at) / RFU FIZ1 (11724087_x_at) / Fold change /veh FIZ1 (11724087_x_at) / RFU OASL (11726364_x_at) / Fold change /veh OASL (11726364_x_at) / RFU SOX15 (11748057_x_at) / Fold change /veh SOX15 (11748057_x_at) / RFU CD79A (11719716_a_at) / Fold change /veh CD79A (11719716_a_at) / RFU HIST1H1D (11736915_at) / Fold change /veh HIST1H1D (11736915_at) / RFU CASKIN2 (11723855_a_at) / Fold change /veh CASKIN2 (11723855_a_at) / RFU LOC730098 (11760151_x_at) / Fold change /veh LOC730098 (11760151_x_at) / RFU OR4N2 (11742367_at) / Fold change /veh OR4N2 (11742367_at) / RFU PRRT2 (11749266_a_at) / Fold change /veh PRRT2 (11749266_a_at) / RFU SNX32 (11753110_a_at) / Fold change /veh SNX32 (11753110_a_at) / RFU CDHR5 (11726645_a_at) / Fold change /veh CDHR5 (11726645_a_at) / RFU RCAN1 (11760418_a_at) / Fold change /veh RCAN1 (11760418_a_at) / RFU FAM167A (11723789_a_at) / Fold change /veh FAM167A (11723789_a_at) / RFU FAM26E (11764081_at) / Fold change /veh FAM26E (11764081_at) / RFU ISYNA1 (11749810_s_at) / Fold change /veh ISYNA1 (11749810_s_at) / RFU ACY1 (11761880_at) / Fold change /veh ACY1 (11761880_at) / RFU 11764098_at / Fold change /veh 11764098_at / RFU SAMD14 (11745864_x_at) / Fold change /veh SAMD14 (11745864_x_at) / RFU NPB (11741838_a_at) / Fold change /veh NPB (11741838_a_at) / RFU TMPRSS6 (11731388_a_at) / Fold change /veh TMPRSS6 (11731388_a_at) / RFU KRTAP10-2 (11738614_at) / Fold change /veh KRTAP10-2 (11738614_at) / RFU ARHGAP8 /// PRR5-ARHGAP8 (11727945_x_at) / Fold change /veh ARHGAP8 /// PRR5-ARHGAP8 (11727945_x_at) / RFU KRTAP5-7 /// NADSYN1 (11734609_at) / Fold change /veh KRTAP5-7 /// NADSYN1 (11734609_at) / RFU RASL12 (11751679_a_at) / Fold change /veh RASL12 (11751679_a_at) / RFU CDKN2B (11736163_a_at) / Fold change /veh CDKN2B (11736163_a_at) / RFU PRF1 (11729649_at) / Fold change /veh PRF1 (11729649_at) / RFU, ZNF638 /// ZNF638-IT1 / Fold change vs veh, ZNF638 /// ZNF638-IT1 / RFU, PANK3 / Fold change vs veh, PANK3 / RFU, SH3YL1 / Fold change vs veh, SH3YL1 / RFU, ZEB2 / Fold change vs veh, ZEB2 / RFU, NRIP1 / Fold change vs veh, NRIP1 / RFU, PTTG1IP / Fold change vs veh, PTTG1IP / RFU, CAPN2 / Fold change vs veh, CAPN2 / RFU, MED14 / Fold change vs veh, MED14 / RFU, SNORA58 / Fold change vs veh, SNORA58 / RFU, C1orf63 / Fold change vs veh, C1orf63 / RFU, LRRFIP1 / Fold change vs veh, LRRFIP1 / RFU, NDUFAF7 / Fold change vs veh, NDUFAF7 / RFU, SLC12A2 / Fold change vs veh, SLC12A2 / RFU, IBTK / Fold change vs veh, IBTK / RFU, ESF1 / Fold change vs veh, ESF1 / Fold change vs veh, TMEM50B / RFU, TAOK1 / Fold change vs veh, TAOK1 / RFU, ACBD3 / Fold change vs veh, ACBD3 / RFU, TMA16 / Fold change vs veh, TMA16 / RFU, RWDD3 / Fold change vs veh, RWDD3 / RFU, BCAT1 / Fold change vs veh, BCAT1 / RFU, EDEM3 / Fold change vs veh, EDEM3 / RFU, TMEM33 / Fold change vs veh, TMEM33 / RFU, WDR75 / Fold change vs veh, WDR75 / RFU, AHCTF1 / Fold change vs veh, AHCTF1 / RFU, TFRC / Fold change vs veh, TFRC / RFU, ZDHHC17 / Fold change vs veh, ZDHHC17 / RFU, NOM1 / Fold change vs veh, NOM1 / RFU, ARL8B / Fold change vs veh, ARL8B / RFU, ZBTB11 / Fold change vs veh, ZBTB11 / RFU, TAMM41 / Fold change vs veh, TAMM41 / RFU, KIAA1704 /// LOC100996395 / Fold change vs veh, KIAA1704 /// LOC100996395 / RFU, ING1 / Fold change vs veh, ING1 / RFU, TRMT61B / Fold change vs veh, TRMT61B / RFU, FUBP3 / Fold change vs veh, FUBP3 / RFU, TP53 / Fold change vs veh, TP53 / RFU, TNKS2 / Fold change vs veh, TNKS2 / RFU, ZFP14 / Fold change vs veh, ZFP14 / RFU, ACTR2 / Fold change vs veh, ACTR2 / RFU, PPP3R1 / Fold change vs veh, PPP3R1 / RFU, PIK3R1 / Fold change vs veh, PIK3R1 / RFU, HNRNPA1 / Fold change vs veh, HNRNPA1 / RFU, RNF170 / Fold change vs veh, RNF170 / RFU, ZNF28 / Fold change vs veh, ZNF28 / RFU, RNGTT / Fold change vs veh, RNGTT / RFU, OGT / Fold change vs veh, OGT / RFU, BRD1 / Fold change vs veh, BRD1 / RFU, MARS / Fold change vs veh, MARS / RFU, ZNF655 / Fold change vs veh, ZNF655 / RFU, FAHD1 / Fold change vs veh, FAHD1 / RFU, BDP1 / Fold change vs veh, BDP1 / RFU, LRRCC1 / Fold change vs veh, LRRCC1 / RFU, ARID1A / Fold change vs veh, ARID1A / RFU, ZNF146 / Fold change vs veh, ZNF146 / RFU, ZNF330 / Fold change vs veh, ZNF330 / RFU, GPN3 / Fold change vs veh, GPN3 / RFU, C9orf123 / Fold change vs veh, C9orf123 / RFU, N4BP2L2 / Fold change vs veh, N4BP2L2 / RFU, ARFIP1 / Fold change vs veh, ARFIP1 / RFU, FAM179B / Fold change vs veh, FAM179B / RFU, BCL10 / Fold change vs veh, BCL10 / RFU, UHRF1BP1L / Fold change vs veh, UHRF1BP1L / RFU, BET1 / Fold change vs veh, BET1 / RFU, CNOT2 / Fold change vs veh, CNOT2 / RFU, ZNF268 / Fold change vs veh, ZNF268 / Fold change vs veh, ZNF507 / RFU, DGCR2 / Fold change vs veh, DGCR2 / RFU, WDSUB1 / Fold change vs veh, WDSUB1 / Fold change vs veh, HSP90B1 /// MIR3652 / RFU, ADSS / Fold change vs veh, ADSS / RFU, GK / Fold change vs veh, GK / RFU, ZNF148 / Fold change vs veh, ZNF148 / RFU, TAF9 / Fold change vs veh, TAF9 / RFU, SLC1A5 / Fold change vs veh, SLC1A5 / RFU, SLMO2 / Fold change vs veh, SLMO2 / RFU, ABCC4 / Fold change vs veh, ABCC4 / RFU, LOC101060439 /// RAP1B / Fold change vs veh, LOC101060439 /// RAP1B / RFU, RFX7 / Fold change vs veh, RFX7 / RFU, GTPBP10 / Fold change vs veh, GTPBP10 / RFU, CNEP1R1 / Fold change vs veh, CNEP1R1 / RFU, BIVM-ERCC5 /// ERCC5 / Fold change vs veh, BIVM-ERCC5 /// ERCC5 / RFU, ILF3 / Fold change vs veh, ILF3 / RFU 11762660_at / Fold change /veh 11762660_at / RFU VCAN (11757783_s_at) / Fold change /veh VCAN (11757783_s_at) / RFU DDX43 (11728927_at) / Fold change /veh DDX43 (11728927_at) / RFU KRT8 (11758188_x_at) / Fold change /veh KRT8 (11758188_x_at) / RFU NKD1 (11759106_at) / Fold change /veh NKD1 (11759106_at) / RFU SRD5A1 (11742802_a_at) / Fold change /veh SRD5A1 (11742802_a_at) / RFU TPSAB1 /// TPSB2 (11721975_s_at) / Fold change /veh TPSAB1 /// TPSB2 (11721975_s_at) / RFU GSTM3 (11746129_a_at) / Fold change /veh GSTM3 (11746129_a_at) / RFU IL23R (11737362_x_at) / Fold change /veh IL23R (11737362_x_at) / RFU TMEM51 (11727254_a_at) / Fold change /veh TMEM51 (11727254_a_at) / RFU PIWIL2 (11732686_x_at) / Fold change /veh PIWIL2 (11732686_x_at) / RFU ORM1 (11744905_x_at) / Fold change /veh ORM1 (11744905_x_at) / RFU CCDC152 (11743942_at) / Fold change /veh CCDC152 (11743942_at) / RFU ECM1 (11717891_a_at) / Fold change /veh ECM1 (11717891_a_at) / RFU IL23R (11748794_a_at) / Fold change /veh IL23R (11748794_a_at) / RFU TNFAIP8L3 (11732012_x_at) / Fold change /veh TNFAIP8L3 (11732012_x_at) / RFU MBOAT4 (11741988_at) / Fold change /veh MBOAT4 (11741988_at) / RFU 11764193_at / Fold change /veh 11764193_at / RFU TMEM53 (11763286_at) / Fold change /veh TMEM53 (11763286_at) / RFU MAGEB2 (11727129_at) / Fold change /veh MAGEB2 (11727129_at) / RFU TMEM200A (11744735_a_at) / Fold change /veh TMEM200A (11744735_a_at) / RFU CCDC152 (11751479_a_at) / Fold change /veh CCDC152 (11751479_a_at) / RFU FAM211A (11726209_a_at) / Fold change /veh FAM211A (11726209_a_at) / RFU RGS16 (11746705_a_at) / Fold change /veh RGS16 (11746705_a_at) / RFU VCAN (11755009_s_at) / Fold change /veh VCAN (11755009_s_at) / RFU RHOB (11743442_s_at) / Fold change /veh RHOB (11743442_s_at) / RFU RGS16 (11720943_a_at) / Fold change /veh RGS16 (11720943_a_at) / RFU RGS16 (11720944_at) / Fold change /veh RGS16 (11720944_at) / RFU, VPS4B / Fold change vs veh, VPS4B / RFU, CREB1 / Fold change vs veh, CREB1 / RFU, DNAJC13 / Fold change vs veh, DNAJC13 / RFU, GNAQ / Fold change vs veh, GNAQ / RFU, CDK5R1 / Fold change vs veh, CDK5R1 / RFU, ZRANB3 / Fold change vs veh, ZRANB3 / RFU, CUL4A / Fold change vs veh, CUL4A / RFU, CCNY / Fold change vs veh, CCNY / RFU, UFL1 / Fold change vs veh, UFL1 / RFU, COG3 / Fold change vs veh, COG3 / RFU, DIAPH2 / Fold change vs veh, DIAPH2 / RFU, SKA2 / Fold change vs veh, SKA2 / RFU, AFF3 / Fold change vs veh, AFF3 / RFU, LMF1 / Fold change vs veh, LMF1 / RFU, IPO11 / Fold change vs veh, IPO11 / RFU, DFFB / Fold change vs veh, DFFB / RFU, FOXP1 / Fold change vs veh, FOXP1 / RFU, CARD8 / Fold change vs veh, CARD8 / RFU, STRN3 / Fold change vs veh, STRN3 / RFU, ADK / Fold change vs veh, ADK / RFU, RASSF2 / Fold change vs veh, RASSF2 / RFU, WIPF1 / Fold change vs veh, WIPF1 / RFU, LARP1B / Fold change vs veh, LARP1B / RFU, RASA1 / Fold change vs veh, RASA1 / RFU, RB1 / Fold change vs veh, RB1 / RFU, PPFIA1 / Fold change vs veh, PPFIA1 / RFU, MAT2A / Fold change vs veh, MAT2A / RFU, CCT5 / Fold change vs veh, CCT5 / RFU, WDR92 / Fold change vs veh, WDR92 / RFU, CUX1 / Fold change vs veh, CUX1 / RFU, TTC7A / Fold change vs veh, TTC7A / RFU, TMEM135 / Fold change vs veh, TMEM135 / RFU, DEPTOR / Fold change vs veh, DEPTOR / RFU, CPM / Fold change vs veh, CPM / RFU, DNAJB6 / Fold change vs veh, DNAJB6 / RFU, CACNA2D3 / Fold change vs veh, CACNA2D3 / RFU, DTX4 / Fold change vs veh, DTX4 / RFU, TFCP2 / Fold change vs veh, TFCP2 / RFU, GMCL1 /// GMCL1P1 / Fold change vs veh, GMCL1 /// GMCL1P1 / RFU, AEBP2 / Fold change vs veh, AEBP2 / RFU, SNHG1 /// SNORD22 /// SNORD25 /// SNORD26 /// SNORD27 /// SNORD28 /// SNORD29 /// SNORD31 / Fold change vs veh, SNHG1 /// SNORD22 /// SNORD25 /// SNORD26 /// SNORD27 /// SNORD28 /// SNORD29 /// SNORD31 / Fold change (Aza/veh), C12orf56 (ProbeSet 11735607_a_at) / Fold change (ACY-1035/veh), C12orf56 (ProbeSet 11735607_a_at) / Fold change (Aza/veh), FGFR1OP (ProbeSet 11751329_s_at) / Fold change (ACY-1035/veh), FGFR1OP (ProbeSet 11751329_s_at) / Fold change (Aza/veh), VPS36 (ProbeSet 11739960_a_at) / Fold change (ACY-1035/veh), VPS36 (ProbeSet 11739960_a_at) / RFU SYPL1 (11715823_x_at) / Fold change /veh SYPL1 (11715823_x_at) / RFU IGFBP7 (11715501_s_at) / Fold change /veh IGFBP7 (11715501_s_at) / RFU REEP3 (11722064_at) / Fold change /veh REEP3 (11722064_at) / RFU IGLL1 (11728026_x_at) / Fold change /veh IGLL1 (11728026_x_at): dose or concentration left out as unconfirmed
# Settings: ProbeSet 11747937_a_at; LIST D
structure (smiles),measurement,value
Nc1ccc(-c2cccs2)cc1NC(=O)c1ccc2c(c1)cc(C1CC1)n2CCN1CCOCC1 [ACY-1035],"Fold change vs veh, DNAJB6",0.86
